Earlier results as cited in US6660719B2, “Inhibiting T-Cell proliferation” (BioCryst Pharmaceuticals Inc., priority 2001, dated 2003).
Like-named read-outs stand apart in the source and are kept apart here.

Experiments:
[1] = system: peripheral blood lymphocytes; conditions: 2′-deoxyguanosine alone, without PNP inhibition; species not given
CCRF-CEM cells = conditions: given with 2′-deoxyguanosine
Molt-4 cells = conditions: given with 2′-deoxyguanosine
[2] = system: peripheral blood lymphocytes; conditions: given to rats with 2′-deoxyguanosine
[3] = system: peripheral blood lymphocytes; conditions: given to dogs with 2′-deoxyguanosine
T-cells = conditions: rats; given with 2′-deoxyguanosine

For `Nc1nc2c(ncn2[C@H]2C[C@H](O)[C@@H](CO)O2)c(=O)[nH]1` [2′-deoxyguanosine], the “cell counts (lymphopenia)” value [1] is listed as “did not significantly decrease cell counts”.
For `Nc1nc2nc(N)[nH]c2c(=O)[nH]1` [8-Aminoguanine], the “proliferation of human T-cells in cultures” value (CCRF-CEM cells) is listed as “inhibits the proliferation” and the “proliferation of human T-cells in cultures” value (Molt-4 cells) is listed as “inhibits the proliferation”.
In the case of `Nc1nc2c(nc(N)n2[C@@H]2O[C@H](CO)[C@@H](O)[C@H]2O)c(=O)[nH]1` [8-Aminoguanosine], the peripheral blood lymphocytes [2] is given as “profound fall”, the peripheral blood lymphocytes [3] is given as “profound fall” and the “levels of 2′-deoxyguanosine triphosphate (dGTP) in T-cells” value (T-cells) is given as “increased levels”.
